Tests used:
Type in all cases: cell-based, human
hmNPCs [1] = experiment: Cell death / cell cycle assay (propidium iodide, FACS); details: for Sub-G1 / G0/G1 / G2/M / S: 48 h, 100 µM nucleotides, pretreated 30 minutes with 10 µM suramin or 100 µM PPADS where named; for G0/G1 / G2/M / S: mean ± SEM, n = 3; for block of the anti-proliferative effects of ATP, ADP and ADPβS: 30 minutes pretreatment, 10 µM suramin or 100 µM PPADS
Procedure: Untreated (control) and treated exponentially growing […] were prepared for cell cycle analysis by lysing cells in 300 μl of hypotonic lysis buffer (0.1% sodium citrate, 0.1% Triton X-100, and 50 μg/ml propidium iodide [PI]). […] Histograms of DNA content were acquired using the CellQuest software. […] For data analysis and correction of the background, noise histograms were processed with the ModFit LT software (Verity, Turramurra, Australia).

hmNPCs [2] = experiment: Short-term proliferation: Ki67/nestin immunostaining; details: 100 µM; 5 subsequent days
Procedure: To determine long-term proliferation, […] were plated and expanded for 2 passages with or without addition of various agents (see below) to the custom expansion media containing the growth factors EGF and FGF2. Different fetal midbrain tissues were included in this study. At the end of the proliferation period, differentiation of […] was induced via replacement of expansion media with mitogen-free media containing 1% FCS, 5 μM forskoline (Sigma-Aldrich Chemie GmbH Munich, Germany), and 100 pg/ml IL-1β (Sigma). The differentiation and expansion media were supplemented with different drugs as appropriate. Prior to immunocytochemistry or protein extraction, […] were allowed to differentiate for 1 week. To determine short-term proliferation via Ki67 immunostaining, the cells were seeded into 24-well plates (70,000 cells/well) and left overnight to rest. P2 receptor agonists (ATP, UTP, ATP + UTP, ADP, ADPβS) were supplied daily for 5 consecutive days. Ki67/nestin double-positive cells were counted in 8 randomly selected fields of nucleotide-treated or untreated samples. For the assessment of MAPK phosphorylation the cells were kept free of mitogens for 2 d prior to addition of the MEK-inhibitor in expansion media. In addition, the MEK-inhibitor was added during the differentiation period 15 min before UTP administration. […] Cover-slips were mounted onto glass slides and examined under a fluorescence microscope (Zeiss Axiovert 200). Acquisition of the cells was performed using the Image-analysis software AxioVision 4 (Carl Zeiss AG, Jena, Germany). The following primary antibodies were used for immunofluorescence: rabbit polyclonal anti-β-tubulin III (anti-Tuj1) antibody, rabbit polyclonal anti-tyrosine hydroxylase antibody , mouse monoclonal anti-nestin antibody (Pharmingen, San Diego, CA, USA), rabbit polyclonal anti-Ki67 antigen antibody (Novocastra Laboratories Ltd, Newcastle upon Tyne, UK). Estimation of the TH-positive cell numbers was performed by counting of cells among approximately 1000 differentiated cells in total within 6 randomly selected fields.

hmNPCs [3] = experiment: Long-term proliferation: number of living cells (hemocytometer, trypan blue exclusion)
Procedure: (§1) To determine long-term proliferation, hmNPCs were plated and expanded for 2 passages with or without addition of various agents (see below) to the custom expansion media containing the growth factors EGF and FGF2. Different fetal midbrain tissues were included in this study. At the end of the proliferation period, differentiation of hmNPCs was induced via replacement of expansion media with mitogen-free media containing 1% FCS, 5 µM forskoline (Sigma-Aldrich Chemie GmbH Munich, Germany), and 100 pg/ml IL-1β (Sigma). The differentiation and expansion media were supplemented with different drugs as appropriate. Prior to immunocytochemistry or protein extraction, hmNPCs were allowed to differentiate for 1 week. To determine short-term proliferation via Ki67 immunostaining, the cells were seeded into 24-well plates (70,000 cells/well) and left overnight to rest. P2 receptor agonists (ATP, UTP, ATP + UTP, ADP, ADPβS) were supplied daily for 5 consecutive days. Ki67/nestin double-positive cells were counted in 8 randomly selected fields of nucleotide-treated or untreated samples. For the assessment of MAPK phosphorylation the cells were kept free of mitogens for 2 d prior to addition of the MEK-inhibitor in expansion media. In addition, the MEK-inhibitor was added during the differentiation period 15 min before UTP administration.
(§2) UTP, UDP, ATP, ADP, ADPβS and suramin were purchased from Sigma (Sigma-Aldrich Chemie GmbH Munich, Germany). UTP and UDP were applied at different concentrations (1 µM, 10 µM, 100 µM), ATP at 100 µM, ADP at 100 µM, and ADPβS at100 µM. During expansion of the cells, the nucleotides were renewed once a week with every media change, unless otherwise stated. They were applied once at the beginning of the differentiation period. The P2 receptor antagonist suramin (10 µM) was added to expansion media 30 min prior to addition of UTP (100 µM). The stock solution of the MEK1/2 inhibitor U0126 (Promega Corporation, Mannheim, Germany) was prepared in dimethyl sulfoxide (DMSO) at a concentration of 10 mM. The stock solution was then diluted in 0.1 M PBS to obtain a concentration of 1 mM. MEK inhibitor (final concentration 10 µM) was added to mitogen-free expansion media, 15 min before UTP treatment (1 µM) of hmNPCs.
Cell counting of control (untreated) and treated hmNPCs was performed using a hemocytometer. Adherent cells were collected by detachment with accutase™ (PAA Laboratories, Pasching, Austria) for 10 min at 37°C. […] The number of total and trypan blue-positive cells was then determined by counting at least 300 cells per sample in a hemocytometer.

hmNPCs [4] = experiment: Dopaminergic differentiation: counting of TH-positive cells by immunocytochemistry
Procedure: as §1, §2
Expanded or one week differentiated hmNPCs were fixed with 4% paraformaldehyde in PBS for 10 min at room temperature and washed with PBS, counterstained with the DNA-binding dye 4'-6-Diamidino-2-phenylindole (DAPI, 2 µg/ml in PBS) for 15 min at room temperature, washed twice in PBS followed by incubation in blocking buffer (10% FCS, 0.2% Triton-X 100 in PBS, pH 7.2) for 30 min at room temperature. After incubation with a primary antibody (over night at 4°C in blocking buffer), the cells were incubated with fluorescent secondary antibodies, Alexa Fluor® 488 conjugate or Alexa Fluor® 594 conjugate (Molecular Probes, Eugene, USA). Cover-slips were mounted onto glass slides and examined under a fluorescence microscope (Zeiss Axiovert 200). Acquisition of the cells was performed using the Image-analysis software AxioVision 4 (Carl Zeiss AG, Jena, Germany). The following primary antibodies were used for immunofluorescence: rabbit polyclonal anti-β-tubulin III (anti-Tuj1) antibody, rabbit polyclonal anti-tyrosine hydroxylase antibody , mouse monoclonal anti-nestin antibody (Pharmingen, San Diego, CA, USA), rabbit polyclonal anti-Ki67 antigen antibody (Novocastra Laboratories Ltd, Newcastle upon Tyne, UK). Estimation of the TH-positive cell numbers was performed by counting of cells among approximately 1000 differentiated cells in total within 6 randomly selected fields.

hmNPCs [5] = experiment: Dopaminergic differentiation: TH protein expression by Western blot; details: pre-treatment with 100 µM antagonist; UTP 1 µM in expansion, 100 µM in differentiation
hmNPCs [6] = experiment: Western blot of proliferation marker PCNA and survival marker Bcl-2; details: 100 µM antagonist, 2 times during the 2 weeks proliferation period, before 1 µM UTP
Procedure: as §1
In order to prepare protein extracts, hmNPCs were collected, washed with ice-cold PBS and lysed in buffer [10 mM HEPES-KOH (pH 7.9), 10 mM KCI, 1.5 mM MgCl2, 0.1% NP-40], supplemented with protease inhibitor cocktail (Roche). After a brief centrifugation at 4°C/10 000×g, protein concentrations and protein yield from extracts were determined using the Bradford method (Bio-Rad, Hercules, CA, USA). To preserve the phosphorylation state of proteins, extracts for the MAPK experiment were obtained using the PhosphoSafe™ extraction reagent containing phophatase inhibitors (Novagen). […] The chemiluminescence was quantified using the AIDA, two-dimensional densitometry software (Raytest lsotopenmeb, Straubenhardt, Germany). […]

hmNPCs [7] = experiment: Dopaminergic differentiation: TH protein expression by Western blot; details: for expression of TH, pre-treatment before UTP: 10 µM pre-treatment, 100 µM UTP, one week of differentiation
Procedure: as §1, §2
(§3) In order to prepare protein extracts, hmNPCs were collected, washed with ice-cold PBS and lysed in buffer [10 mM HEPES-KOH (pH 7.9), 10 mM KCI, 1.5 mM MgCl2, 0.1% NP-40], supplemented with protease inhibitor cocktail (Roche). After a brief centrifugation at 4°C/10 000×g, protein concentrations and protein yield from extracts were determined using the Bradford method (Bio-Rad, Hercules, CA, USA). To preserve the phosphorylation state of proteins, extracts for the MAPK experiment were obtained using the PhosphoSafe™ extraction reagent containing phophatase inhibitors (Novagen). […] Membranes were blocked with 5% (wt/vol) nonfat dry milk in PBS-T (PBS, 0.1% (vol/vol) Tween 20) for 2 h at room temperature and subsequently incubated with the desired primary antibody (diluted in PBS containing 5% non-fat milk and 0.1% Tween 20) overnight at 4 °C with gentle agitation. The membrane was incubated with horseradish peroxidase-coupled secondary antibody for 1 h at room temperature. Chemiluminescence detection was performed by incubating the membranes with SuperSignal-Dura substrate (Pierce Biotechnology, Rockford, U.S.A) followed by analysis on a CCD cooling camera (Fuji LAS-1000plus). The chemiluminescence was quantified using the AIDA, two-dimensional densitometry software (Raytest lsotopenmeb, Straubenhardt, Germany).

ERK1/2 = ERK1/2 (MAPK) phosphorylation by Western blot; details: for expression of phosphorylated ERK1/2, pre-treatment before UTP: 10 µM pre-treatment, 100 µM UTP, one week of differentiation
Procedure: as §1, §2
as §3, with “Chemiluminescence detection was performed by incubating the membranes with SuperSignal-Dura substrate (Pierce Biotechnology, Rockford, U.S.A) followed by analysis on a CCD cooling camera (Fuji LAS-1000plus).” left out

[8] = 10 µM antagonist 30 min before 100 µM UTP

Nc1ncnc2c1ncn2[C@@H]1O[C@H](COP(=O)(O)OP(=O)(O)O)[C@@H](O)[C@H]1O [ADP, adenosine diphosphate]
Sub-G1 (hmNPCs [1]): 0.54%
G0/G1 (hmNPCs [1]): 84.64 ± 0.41%
G2/M (hmNPCs [1]): 3.72 ± 0.20%
S (hmNPCs [1]): 11.63 ± 0.2%
Ki67-positive cells (hmNPCs [2]): strong reduction
number of living cells (hmNPCs [3]; 100 µM each, 2 weeks in expansion media, on coapplication ADP 30 min before UTP, 20160 min): 4 ± 0.5%
activity at 100 µM (hmNPCs [4]; Homo sapiens, 168 h, 100 µM each, once, only during the differentiation period of one week, read-out: number of TH-positive (dopaminergic) cells as compared to control): 11 ± 3%

Nc1ncnc2c1ncn2[C@@H]1O[C@H](COP(=O)(O)OP(O)(O)=S)[C@@H](O)[C@H]1O [ADPβS]
Sub-G1 (hmNPCs [1]): 0.82%
G0/G1 (hmNPCs [1]): 84.21 ± 0.06%
G2/M (hmNPCs [1]): 3.61 ± 0.01%
S (hmNPCs [1]): 12.17 ± 0.05%
Ki67-positive cells (hmNPCs [2]): strong reduction

Nc1ncnc2c1ncn2[C@@H]1O[C@H](COP(=O)(O)OP(=O)(O)OP(=O)(O)O)[C@@H](O)[C@H]1O [ATP, adenosine triphosphate]
Sub-G1 (hmNPCs [1]): 0.56%
G0/G1 (hmNPCs [1]): 91.69 ± 1.19%
G2/M (hmNPCs [1]): 1.42 ± 0.11%
S (hmNPCs [1]): 6.89 ± 1.17%
Ki67-positive cells (hmNPCs [2]): strong reduction

Cc1nc(N=Nc2ccc(S(=O)(=O)O)cc2S(=O)(=O)O)c(COP(=O)(O)O)c(C=O)c1O [PPADS, Pyridoxal-phosphate-6-azophenyl-2',4'-disulphonic acid]
TH expression increase by UTP, antagonist pre-treatment (hmNPCs [5]): completely blocked
PCNA expression, antagonist before UTP (hmNPCs [6]): reduced the PCNA expression to control levels
block of the anti-proliferative effects of ATP, ADP and ADPβS (hmNPCs [1]): failed to block

N#CC(=C(/N)Sc1ccccc1N)/C(C#N)=C(\N)Sc1ccccc1N [U0126]
expression of TH, pre-treatment before UTP (hmNPCs [7]): remained at basal levels
UTP-induced phosphorylation of ERK1/2, inhibitor pretreatment (ERK1/2; 10 µM inhibitor for 15 min before 1 µM UTP): abrogated
expression of phosphorylated ERK1/2, pre-treatment before UTP (ERK1/2): remained at basal levels
proliferation of hmNPCs (hmNPCs [3]; data not shown): reduced

O=c1ccn([C@@H]2O[C@H](COP(=O)(O)OP(=O)(O)O)[C@@H](O)[C@H]2O)c(=O)[nH]1 [UDP, uridine 5'-diphosphate]
TH protein levels (hmNPCs [7]; 100 µM during the differentiation period): no increase
activity at 1 µM (hmNPCs [7]; Homo sapiens, 1 µM during the differentiation period, read-out: TH expression in immunoblots): 194 ± 7%
activity at 10 µM (hmNPCs [7]; Homo sapiens, 10 µM during the differentiation period, read-out: TH expression in immunoblots): 180 ± 8%

Cc1ccc(C(=O)Nc2ccc(S(=O)(=O)O)c3cc(S(=O)(=O)O)cc(S(=O)(=O)O)c23)cc1NC(=O)c1cccc(NC(=O)Nc2cccc(C(=O)Nc3cc(C(=O)Nc4ccc(S(=O)(=O)O)c5cc(S(=O)(=O)O)cc(S(=O)(=O)O)c45)ccc3C)c2)c1 [suramin]
TH protein content, antagonist before UTP (hmNPCs [7]; [8]): decreased
expression of TH, pre-treatment before UTP (hmNPCs [7]): remained at basal levels
block of the anti-proliferative effects of ATP, ADP and ADPβS (hmNPCs [1]): failed to block
expression of phosphorylated ERK1/2, pre-treatment before UTP (ERK1/2): remained at basal levels
number of TH-positive cells, antagonist before UTP (hmNPCs [4]; [8]): reduced
